Assay results published in patent US20230104936A1, “TRPML MODULATORS” (Casma Therapeutics, Inc., priority 2019, published 2023).

Tested on: TFEB
Assay: TFEB nuclear translocation assay, HeLa wt cells
Format: cell-based
Details: 2 hrs compound treatment, Table 1 does not say HeLa wt or TRPML1 KO
Method in brief: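 HeLa wt or TRPML1 KO cells treated 2 hrs with compounds at 37° C, fixed in 4% PFA, immunostained with anti-TFEB plus Alexa 488 secondary and Hoechst. Imaged at ×20, four fields/well; read-out is nuclear/perinuclear-ring TFEB intensity ratio, reported as AC50.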

Structure (SMILES) | AC50 (Homo sapiens, HeLa, 2 h) [nM] | AC50 [nM]
CC(c1cccc(F)c1N1CCOCC1)S(=O)(=O)c1ccc2c(c1)CCS2(=O)=O (stereo not shown) [Compound A-957, 5-{1-[3-fluoro-2-(morpholin-4-yl)phenyl]ethanesulfonyl}-2,3-dihydro-1λ^6-benzothiophene-1,1-dione] | ≥ 10000 | –
C[C@@H]1CN(CC2CCN(c3c(F)cccc3NS(=O)(=O)c3ccc(S(C)(=N)=O)cc3)CC2)C[C@H](C)O1 (single isomer, unassigned) [Compound A-846] | – | 2010 to 8000
CN(C)S(=O)(=O)c1ccc(S(=O)(=O)Nc2ccccc2N2CCN(c3ccc(Cl)cc3F)CC2)cc1 [Compound A-12, N4-{2-[4-(4-chloro-2-fluorophenyl)piperazin-1-yl]phenyl}-N1,N1-dimethylbenzene-1,4-disulfonamide] | ≤ 2000 | –
CP(C)(=O)c1ccc(S(=O)(=O)Nc2ccccc2N2CCC(c3ccc(F)cc3F)CC2)cc1 [Compound A-176, N-{2-[4-(2,4-difluorophenyl)piperidin-1-yl]phenyl}-4-(dimethylphosphoryl)benzene-1-sulfonamide] | ≥ 10000 | –
CN1CC2(CCN(c3ccccc3N(C)S(=O)(=O)c3ccc(S(C)(=O)=O)cc3)CC2)c2ccc(F)cc21 [Compound A-307, N-(2-{6-fluoro-1-methyl-1,2-dihydrospiro[indole-3,4′-piperidin]-1′-yl}phenyl)-4-methanesulfonyl-N-methylbenzene-1-sulfonamide] | 2010 to 8000 | –
CC(c1cccc(F)c1N1CCC(CN2C3CCC2COC3)CC1)S(=O)(=O)c1ccc2c(c1)CCC2 (stereo not shown) [Compound A-908, 8-[(1-{2-[1-(2,3-dihydro-1H-indene-5-sulfonyl)ethyl]-6-fluorophenyl}piperidin-4-yl)methyl]-3-oxa-8-azabicyclo[3.2.1]octane] | 2010 to 8000 | –
CC1(C)Cc2cc(S(=O)(=O)Nc3ccccc3N3CCN(C(=O)C(C)(C)C)CC3)ccc2O1 [Compound A-514, N-{2-[4-(2,2-dimethylpropanoyl)piperazin-1-yl]phenyl}-2,2-dimethyl-2,3-dihydro-1-benzofuran-5-sulfonamide] | ≤ 2000 | –
COCC1(C)CCN(c2ccccc2NS(=O)(=O)c2cccc(C)c2)CC1 [Compound A-618, N-{2-[4-(methoxymethyl)-4-methylpiperidin-1-yl]phenyl}-3-methylbenzene-1-sulfonamide] | 2010 to 8000 | –
Cc1ccc(S(=O)(=O)Nc2cccc(F)c2N2CCC(CN3C4CCC3COC4)CC2)cc1 [Compound A-881, N-{3-fluoro-2-[4-({3-oxa-8-azabicyclo[3.2.1]octan-8-yl}methyl)piperidin-1-yl]phenyl}-4-methylbenzene-1-sulfonamide] | ≤ 2000 | –
COCC(F)(F)C1CCN(c2c(F)cccc2NS(=O)(=O)c2ccc(S(=O)(=O)N(C)C)cc2)CC1 [Compound A-861, N4-{2-[4-(1,1-difluoro-2-methoxyethyl)piperidin-1-yl]-3-fluorophenyl}-N1,N1-dimethylbenzene-1,4-disulfonamide] | ≤ 2000 | –
COCC1(C)CCN(c2ccccc2NS(=O)(=O)c2ccc(OCC3CC3)cc2)CC1 [Compound A-555, 4-(cyclopropylmethoxy)-N-{2-[4-(methoxymethyl)-4-methylpiperidin-1-yl]phenyl}benzene-1-sulfonamide] | 2010 to 8000 | –
O=S(=O)(Nc1ccccc1N1CCC(c2c(F)cccc2F)CC1)c1ccc(S(=O)(=O)N2CCOCC2)cc1 [Compound A-217, N-{2-[4-(2,6-difluorophenyl)piperidin-1-yl]phenyl}-4-(morpholine-4-sulfonyl)benzene-1-sulfonamide] | ≤ 2000 | –
O=S(=O)(Nc1cccc(F)c1N1CCC(CN2C3COCC2C3)CC1)c1ccc2c(c1)CCC2 [Compound A-876, N-{3-fluoro-2-[4-({3-oxa-6-azabicyclo[3.1.1]heptan-6-yl}methyl)piperidin-1-yl]phenyl}-2,3-dihydro-1H-indene-5-sulfonamide] | ≥ 10000 | –
CS(=O)(=O)c1ccc(S(=O)(=O)Nc2ccc(F)cc2N2CCC(c3c(F)cccc3F)CC2)cc1 [Compound A-155, N-{2-[4-(2,6-difluorophenyl)piperidin-1-yl]-4-fluorophenyl}-4-methanesulfonylbenzene-1-sulfonamide] | 2010 to 8000 | –
CN(C)C(c1ccc(S(=O)(=O)Nc2ccccc2N2CCC(c3ccc(Cl)cc3F)CC2)cc1)C(F)(F)F (stereo not shown) [Compound A-222, N-{2-[4-(4-chloro-2-fluorophenyl)piperidin-1-yl]phenyl}-4-[1-(dimethylamino)-2,2,2-trifluoroethyl]benzene-1-sulfonamide] | ≤ 2000 | –
COc1ccc(S(=O)(=O)Nc2cnncc2N2CCC(c3ncc(F)cc3F)CC2)cc1 [Compound A-206, N-{5-[4-(3,5-difluoropyridin-2-yl)piperidin-1-yl]pyridazin-4-yl}-4-methoxybenzene-1-sulfonamide] | ≥ 10000 | –
CC(c1ccccc1N1CCN(C2COC2)CC1)S(=O)(=O)c1ccc(S(=O)(=O)N(C)C)cc1 (stereo not shown) [Compound A-603, N,N-dimethyl-4-(1-{2-[4-(oxetan-3-yl)piperazin-1-yl]phenyl}ethanesulfonyl)benzene-1-sulfonamide] | 2010 to 8000 | –

Structure (SMILES) | AC50 (Homo sapiens, HeLa, 2 h) [nM] | AC50 [nM]
CN1CC(c2ccccc2)C2(CCN(c3ccccc3NS(=O)(=O)c3ccc(S(=O)(=O)N(C)C)cc3)CC2)C1 (stereo not shown) [Compound A-302, N1,N1-dimethyl-N4-(2-{2-methyl-4-phenyl-2,8-diazaspiro[4.5]decan-8-yl}phenyl)benzene-1,4-disulfonamide] | ≥ 10000 | –
CNC(=O)c1cccc(NS(=O)(=O)c2ccc(S(=O)(=O)N(C)C)cc2)c1N1CCCCC1 [Compound A-809, 3-[4-(dimethylsulfamoyl)benzenesulfonamido]-N-methyl-2-(piperidin-1-yl)benzamide] | ≥ 10000 | –
C[C@@H]1CN(CC2CCN(c3c(F)cccc3[C@H](C)S(=O)(=O)c3ccc(S(=N)(=O)N(C)C)cc3)CC2)C[C@H](C)O1 (single isomer, unassigned) [Compound A-1001] | – | ≤ 2000
Cc1nn(C)c(N2CCN(c3ccc(Cl)cc3F)CC2)c1NS(=O)(=O)c1ccc(S(=O)(=O)N(C)C)cc1 [Compound A-18, N1-(5-(4-(4-chloro-2-fluorophenyl)piperazin-1-yl)-1,3-dimethyl-1H-pyrazol-4-yl)-N4,N4-dimethylbenzene-1,4-disulfonamide] | ≤ 2000 | –
O=S(=O)(Nc1cccc(Cl)c1N1CCC(c2c(F)cccc2F)CC1)c1ccc2c(c1)CCC2 [Compound A-298, N-{3-chloro-2-[4-(2,6-difluorophenyl)piperidin-1-yl]phenyl}-2,3-dihydro-1H-indene-5-sulfonamide] | ≤ 2000 | –
Cc1nn(S(=O)(=O)c2ccc(S(=O)(=O)N(C)C)cc2)cc1C1CCN(c2ccc(Cl)cc2F)CC1 [Compound A-38, 4-({4-[1-(4-chloro-2-fluorophenyl)piperidin-4-yl]-3-methyl-1H-pyrazol-1-yl}sulfonyl)-N,N-dimethylbenzene-1-sulfonamide] | ≤ 2000 | –
C[C@@H]1CN(CC2CCN(c3c(NS(=O)(=O)c4ccc(S(=O)(=O)N(C)C)cc4)cccc3C(F)(F)F)CC2)C[C@H](C)O1 [Compound A-788, N4-[2-(4-{[(2R,6S)-2,6-dimethylmorpholin-4-yl]methyl}piperidin-1-yl)-3-(trifluoromethyl)phenyl]-N1,N1-dimethylbenzene-1,4-disulfonamide] | ≤ 2000 | –
C[C@H](c1cccc(F)c1N1CCC(F)(F)CC1)S(=O)(=O)c1ccc(S(=N)(=O)N(C)C)cc1 (single isomer, unassigned) [Compound A-890] | – | 2010 to 8000
COc1ccc(S(=O)(=O)Nc2ccccc2N2CC(Cc3ccc(F)cc3F)C2)cc1 [Compound A-219, N-(2-{3-[(2,4-difluorophenyl)methyl]azetidin-1-yl}phenyl)-4-methoxybenzene-1-sulfonamide] | ≥ 10000 | –
CC(c1cccc(F)c1N1CCC(C)(C(F)F)CC1)S(=O)(=O)c1ccc(S(=O)(=O)N(C)C)cc1 (single isomer, unassigned) [Compound A-925, 4-((1-(2-(4-(difluoromethyl)-4-methylpiperidin-1-yl)-3-fluorophenyl)ethyl)sulfonyl)-N,N-dimethylbenzenesulfonamide] | ≤ 2000 | –
COc1cccc(S(=O)(=O)Nc2cccc(Cl)c2N2CCOCC2)c1 [Compound A-367, N-[3-chloro-2-(morpholin-4-yl)phenyl]-3-methoxybenzene-1-sulfonamide] | 2010 to 8000 | –
O=S(=O)(Nc1cccc(Cl)c1N1CCOCC1)c1ccc(C2CC2)cc1 [Compound A-391, N-[3-chloro-2-(morpholin-4-yl)phenyl]-4-cyclopropylbenzene-1-sulfonamide] | 2010 to 8000 | –
COCC1(C)CCN(c2ccccc2NS(=O)(=O)c2ccc(C)cc2)CC1 [Compound A-539, N-{2-[4-(methoxymethyl)-4-methylpiperidin-1-yl]phenyl}-4-methylbenzene-1-sulfonamide] | ≤ 2000 | –
NS(=O)(=O)c1ccc(S(=O)(=O)Nc2ccccc2N2CCC(c3ccc(Cl)cc3F)CC2)cc1 [Compound A-482, N1-{2-[4-(4-chloro-2-fluorophenyl)piperidin-1-yl]phenyl}benzene-1,4-disulfonamide] | 2010 to 8000 | –
Cc1cnc(N2CCC(CN3CCC(F)(F)CC3)CC2)c(C(C)S(=O)(=O)c2ccc(S(=O)(=O)N(C)C)cc2)c1 (single isomer, unassigned) [Compound A-990, 4-((1-(2-(4-((4,4-difluoropiperidin-1-yl)methyl)piperidin-1-yl)-5-methylpyridin-3-yl)ethyl)sulfonyl)-N,N-dimethylbenzenesulfonamide] | – | ≤ 2000
CC(C)(C)C(=O)N1CCN(c2ccccc2NS(=O)(=O)c2ccc(C(F)(F)C(F)(F)F)cc2)CC1 [Compound A-537, N-{2-[4-(2,2-dimethylpropanoyl)piperazin-1-yl]phenyl}-4-(1,1,2,2,2-pentafluoroethyl)benzene-1-sulfonamide] | 8010 to 9990 | –
COCC1(C)CCN(c2ccccc2NS(=O)(=O)c2ccc(C(C)(C)C(=O)OC)cc2)CC1 [Compound A-705, methyl 2-[4-({2-[4-(methoxymethyl)-4-methylpiperidin-1-yl]phenyl}sulfamoyl)phenyl]-2-methylpropanoate] | 8010 to 9990 | –
